# Experimental data reported in ChEMBL document CHEMBL1201862, “PubChem BioAssay data set” (2004).
# Active and inactive are the calls of the source.
# Columns and labels:
# [1] = molecular target: ALK tyrosine kinase receptor (Homo sapiens, UniProt Q9UM73); assay type: functional;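 also: ALK tested as one member of a kinase panel screen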
# [2] = molecular target: Cell division cycle 7-related protein kinase (Homo sapiens, UniProt O00311); assay type: functional;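 also: value obtained from a kinome-wide kinase panel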
# [3] = molecular target: 26S proteasome non-ATPase regulatory subunit 14 (Homo sapiens, UniProt O00487); experiment: inhibition of proteasome subunit RPN11 – biochemical, fluorescence polarization, uHTS hits, confirmation (AID 602368); assay type: functional
# [4] = molecular target: 72 kDa type IV collagenase (Homo sapiens, UniProt P08253); experiment: Dose Response validation of uHTS RPN11 inhibitor hits using a MMP-2 Fluorescence assay.; assay type: functional
# Prothrombin = Prothrombin (Bos taurus, UniProt P00735); experiment: thrombin protease inhibitors – biochemical, fluorescence polarization, uHTS hits, dose response (AID 602369); assay type: functional
# [5] = molecular target: Mitogen-activated protein kinase kinase kinase kinase 4 (Homo sapiens, UniProt O95819); assay type: functional
# [6] = molecular target: Dual specificity protein kinase CLK4 (Homo sapiens, UniProt Q9HAZ1); assay type: functional
# [7] = molecular target: Serine/threonine-protein kinase pim-1 (Homo sapiens, UniProt P11309); assay type: functional
# [8] = molecular target: Glycogen synthase kinase-3 beta (Homo sapiens, UniProt P49841); assay type: functional;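 also: value comes from a broad kinome profiling panel, with GSK3B as the panel member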
# [9] = molecular target: cAMP-dependent protein kinase catalytic subunit alpha (Homo sapiens, UniProt P17612); assay type: functional
# [10] = molecular target: Homeodomain-interacting protein kinase 2 (Homo sapiens, UniProt Q9H2X6); assay type: functional;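 also: measured within a kinome-wide kinase profiling panel, HIPK2 being one panel member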
# [11] = molecular target: Interleukin-1 receptor-associated kinase 4 (Homo sapiens, UniProt Q9NWZ3); assay type: functional
# [12] = molecular target: T1, Rac GTPase-activating protein 1 (Homo sapiens, UniProt Q9H0H5); experiment: blockers of MgcRacGAP-driven Rac1 GTP hydrolysis – biochemical, ADP Hunter fluorescence, primary and confirmatory, confirmation (AID 624330); assay type: functional
# T1 sequence (Q9H0H5 whole entry): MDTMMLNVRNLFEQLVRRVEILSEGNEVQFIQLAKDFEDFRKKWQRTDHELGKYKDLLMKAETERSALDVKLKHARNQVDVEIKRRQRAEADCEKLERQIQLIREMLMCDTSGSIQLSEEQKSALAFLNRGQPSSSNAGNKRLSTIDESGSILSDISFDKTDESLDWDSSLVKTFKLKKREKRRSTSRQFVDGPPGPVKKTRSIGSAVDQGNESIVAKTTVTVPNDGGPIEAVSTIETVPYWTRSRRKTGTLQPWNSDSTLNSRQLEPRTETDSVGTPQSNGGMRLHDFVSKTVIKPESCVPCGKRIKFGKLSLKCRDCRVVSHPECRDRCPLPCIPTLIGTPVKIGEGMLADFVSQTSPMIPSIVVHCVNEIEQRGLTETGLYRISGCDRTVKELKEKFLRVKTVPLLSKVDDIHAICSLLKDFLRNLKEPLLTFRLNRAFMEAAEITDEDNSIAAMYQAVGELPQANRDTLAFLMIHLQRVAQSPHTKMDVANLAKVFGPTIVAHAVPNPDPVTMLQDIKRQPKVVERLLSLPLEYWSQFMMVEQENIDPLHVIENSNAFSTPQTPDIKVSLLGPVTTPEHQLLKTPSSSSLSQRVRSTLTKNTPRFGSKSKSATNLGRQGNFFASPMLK
# [13] = A Cell Based Secondary Assay to Explore Cytotoxicity in THP-1 Cells of Compounds that Modulate Mycobacterium tuberculosis in Media Containing Glycerol versus Media without Glycerol (2).; assay type: functional
# [14] = molecular target: DNA (cytosine-5)-methyltransferase 1 (Homo sapiens, UniProt P26358); experiment: inhibition of DNA methylation by DNMT1 – biochemical, fluorescent molecular beacon, confirmation (AID 602386); assay type: functional
# [15] = THP-1 cell cytotoxicity, dose response, cytotoxicity control, set 3 (AID 504852); assay type: functional; settings: Mycobacterium tuberculosis
# [16] = THP-1 cell cytotoxicity, cytotoxicity control, set 4 (AID 504911); assay type: functional; settings: Mycobacterium tuberculosis
# [17] = molecular target: T2, DNA repair protein RAD52 homolog (Homo sapiens, UniProt P43351); assay type: functional, biochemical
# T2 sequence (P43351 whole entry): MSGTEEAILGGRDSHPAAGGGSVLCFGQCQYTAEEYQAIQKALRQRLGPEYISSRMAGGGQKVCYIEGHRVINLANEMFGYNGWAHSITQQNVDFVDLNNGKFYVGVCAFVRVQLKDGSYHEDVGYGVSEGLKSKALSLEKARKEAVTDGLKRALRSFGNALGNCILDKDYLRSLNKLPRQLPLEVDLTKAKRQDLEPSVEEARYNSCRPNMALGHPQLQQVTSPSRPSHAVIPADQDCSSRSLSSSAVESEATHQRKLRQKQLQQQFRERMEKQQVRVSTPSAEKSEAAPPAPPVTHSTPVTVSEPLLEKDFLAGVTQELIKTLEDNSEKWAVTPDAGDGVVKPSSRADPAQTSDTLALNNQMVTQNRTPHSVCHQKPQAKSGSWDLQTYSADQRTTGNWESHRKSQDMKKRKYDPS
# Misshapen-like kinase 1 = Misshapen-like kinase 1 (Homo sapiens, UniProt Q8N4C8); assay type: functional;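 also: kinome panel screen with MINK as the panel member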
# [18] = molecular target: MAP/microtubule affinity-regulating kinase 3 (Homo sapiens, UniProt P27448); assay type: functional;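 also: MARK3 affinity measured as one member of a kinome panel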
# [19] = molecular target: Cyclin-dependent kinase 1 (Homo sapiens, UniProt P06493); assay type: functional;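 also: Kinome-wide panel profiling, with the target listed as panel member CDC2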
# [20] = molecular target: Tyrosine-protein kinase receptor UFO (Homo sapiens, UniProt P30530); assay type: functional
# [21] = molecular target: STE20-like serine/threonine-protein kinase (Homo sapiens, UniProt Q9H2G2); assay type: functional
# [22] = molecular target: Cyclin-dependent kinase 5 (Homo sapiens, UniProt Q00535); assay type: functional;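 also: CDK5 measured as one member of a kinase profiling panel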
# [23] = molecular target: Dual specificity protein kinase CLK2 (Homo sapiens, UniProt P49760); assay type: functional
# Chain of Glycogen synthase kinase-3 beta (P49841 whole entry): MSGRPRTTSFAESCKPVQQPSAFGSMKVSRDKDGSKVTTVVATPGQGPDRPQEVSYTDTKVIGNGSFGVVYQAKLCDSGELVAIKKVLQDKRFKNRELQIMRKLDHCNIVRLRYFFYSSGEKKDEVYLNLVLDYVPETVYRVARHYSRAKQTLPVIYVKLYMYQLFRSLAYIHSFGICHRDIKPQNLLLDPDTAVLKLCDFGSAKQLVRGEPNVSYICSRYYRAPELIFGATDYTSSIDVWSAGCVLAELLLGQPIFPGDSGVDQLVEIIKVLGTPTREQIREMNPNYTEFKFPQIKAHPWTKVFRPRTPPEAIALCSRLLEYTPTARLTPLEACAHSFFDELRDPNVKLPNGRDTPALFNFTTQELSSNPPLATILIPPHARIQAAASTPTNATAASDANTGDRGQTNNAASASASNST
# Chain of Cell division cycle 7-related protein kinase (O00311 whole entry): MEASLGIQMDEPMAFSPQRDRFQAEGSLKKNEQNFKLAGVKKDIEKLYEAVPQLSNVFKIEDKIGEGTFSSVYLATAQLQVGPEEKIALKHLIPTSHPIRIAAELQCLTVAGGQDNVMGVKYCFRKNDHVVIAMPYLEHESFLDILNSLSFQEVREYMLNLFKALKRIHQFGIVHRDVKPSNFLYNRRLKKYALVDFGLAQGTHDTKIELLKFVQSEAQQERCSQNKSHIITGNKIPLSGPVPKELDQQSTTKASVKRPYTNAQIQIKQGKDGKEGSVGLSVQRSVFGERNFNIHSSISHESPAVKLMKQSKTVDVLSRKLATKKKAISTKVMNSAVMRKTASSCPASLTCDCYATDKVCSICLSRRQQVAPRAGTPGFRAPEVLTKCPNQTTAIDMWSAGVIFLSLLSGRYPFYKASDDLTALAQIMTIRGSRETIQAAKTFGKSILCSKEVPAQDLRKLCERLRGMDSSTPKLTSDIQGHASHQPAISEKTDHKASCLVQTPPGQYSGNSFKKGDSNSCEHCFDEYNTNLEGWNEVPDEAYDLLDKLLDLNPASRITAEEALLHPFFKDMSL
# Chain of Mitogen-activated protein kinase kinase kinase kinase 4 (O95819 whole entry): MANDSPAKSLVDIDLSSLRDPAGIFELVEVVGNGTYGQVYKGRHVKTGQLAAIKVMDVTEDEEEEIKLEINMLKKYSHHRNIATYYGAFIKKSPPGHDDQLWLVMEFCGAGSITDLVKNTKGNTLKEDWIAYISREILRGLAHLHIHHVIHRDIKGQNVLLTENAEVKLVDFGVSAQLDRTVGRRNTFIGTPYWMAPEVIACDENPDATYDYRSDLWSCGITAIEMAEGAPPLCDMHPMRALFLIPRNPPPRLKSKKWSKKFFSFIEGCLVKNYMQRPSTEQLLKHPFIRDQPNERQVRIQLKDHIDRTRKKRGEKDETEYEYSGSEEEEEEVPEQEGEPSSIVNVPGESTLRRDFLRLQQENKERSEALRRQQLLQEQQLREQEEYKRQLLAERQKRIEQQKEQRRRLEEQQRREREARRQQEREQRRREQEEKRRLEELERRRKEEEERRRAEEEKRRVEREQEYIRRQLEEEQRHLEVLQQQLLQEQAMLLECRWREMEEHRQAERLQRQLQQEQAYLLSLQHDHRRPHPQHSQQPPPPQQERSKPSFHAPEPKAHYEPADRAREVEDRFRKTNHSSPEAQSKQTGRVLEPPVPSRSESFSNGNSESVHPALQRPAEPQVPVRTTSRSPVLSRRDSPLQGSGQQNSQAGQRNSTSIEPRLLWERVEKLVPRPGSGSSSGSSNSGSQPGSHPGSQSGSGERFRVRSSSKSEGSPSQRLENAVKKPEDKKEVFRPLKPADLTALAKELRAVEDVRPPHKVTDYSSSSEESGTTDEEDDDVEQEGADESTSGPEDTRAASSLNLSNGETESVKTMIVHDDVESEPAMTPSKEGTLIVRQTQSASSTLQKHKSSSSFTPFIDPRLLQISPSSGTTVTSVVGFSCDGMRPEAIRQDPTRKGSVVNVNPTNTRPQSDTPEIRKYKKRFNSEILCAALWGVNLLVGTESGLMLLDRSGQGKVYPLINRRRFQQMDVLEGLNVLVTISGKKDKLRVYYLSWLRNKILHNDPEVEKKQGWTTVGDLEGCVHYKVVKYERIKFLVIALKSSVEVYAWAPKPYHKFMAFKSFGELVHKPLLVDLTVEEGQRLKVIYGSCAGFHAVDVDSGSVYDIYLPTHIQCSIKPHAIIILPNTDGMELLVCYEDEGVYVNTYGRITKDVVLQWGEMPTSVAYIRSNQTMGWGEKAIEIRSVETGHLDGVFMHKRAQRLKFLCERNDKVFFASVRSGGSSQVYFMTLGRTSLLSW
# Chain of Dual specificity protein kinase CLK4 (Q9HAZ1 whole entry): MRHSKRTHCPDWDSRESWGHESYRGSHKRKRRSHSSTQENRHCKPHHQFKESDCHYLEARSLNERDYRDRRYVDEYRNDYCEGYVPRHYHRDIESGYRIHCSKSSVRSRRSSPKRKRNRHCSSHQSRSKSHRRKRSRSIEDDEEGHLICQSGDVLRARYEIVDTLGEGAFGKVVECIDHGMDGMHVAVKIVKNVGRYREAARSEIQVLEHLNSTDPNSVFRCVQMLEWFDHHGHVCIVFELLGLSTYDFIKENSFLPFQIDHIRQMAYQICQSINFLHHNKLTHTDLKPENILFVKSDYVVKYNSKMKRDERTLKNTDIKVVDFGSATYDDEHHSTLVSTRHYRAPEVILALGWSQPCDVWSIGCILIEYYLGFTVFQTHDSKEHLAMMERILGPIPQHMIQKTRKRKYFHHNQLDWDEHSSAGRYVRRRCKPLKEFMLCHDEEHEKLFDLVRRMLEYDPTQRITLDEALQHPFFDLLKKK
# Chain of STE20-like serine/threonine-protein kinase (Q9H2G2 whole entry): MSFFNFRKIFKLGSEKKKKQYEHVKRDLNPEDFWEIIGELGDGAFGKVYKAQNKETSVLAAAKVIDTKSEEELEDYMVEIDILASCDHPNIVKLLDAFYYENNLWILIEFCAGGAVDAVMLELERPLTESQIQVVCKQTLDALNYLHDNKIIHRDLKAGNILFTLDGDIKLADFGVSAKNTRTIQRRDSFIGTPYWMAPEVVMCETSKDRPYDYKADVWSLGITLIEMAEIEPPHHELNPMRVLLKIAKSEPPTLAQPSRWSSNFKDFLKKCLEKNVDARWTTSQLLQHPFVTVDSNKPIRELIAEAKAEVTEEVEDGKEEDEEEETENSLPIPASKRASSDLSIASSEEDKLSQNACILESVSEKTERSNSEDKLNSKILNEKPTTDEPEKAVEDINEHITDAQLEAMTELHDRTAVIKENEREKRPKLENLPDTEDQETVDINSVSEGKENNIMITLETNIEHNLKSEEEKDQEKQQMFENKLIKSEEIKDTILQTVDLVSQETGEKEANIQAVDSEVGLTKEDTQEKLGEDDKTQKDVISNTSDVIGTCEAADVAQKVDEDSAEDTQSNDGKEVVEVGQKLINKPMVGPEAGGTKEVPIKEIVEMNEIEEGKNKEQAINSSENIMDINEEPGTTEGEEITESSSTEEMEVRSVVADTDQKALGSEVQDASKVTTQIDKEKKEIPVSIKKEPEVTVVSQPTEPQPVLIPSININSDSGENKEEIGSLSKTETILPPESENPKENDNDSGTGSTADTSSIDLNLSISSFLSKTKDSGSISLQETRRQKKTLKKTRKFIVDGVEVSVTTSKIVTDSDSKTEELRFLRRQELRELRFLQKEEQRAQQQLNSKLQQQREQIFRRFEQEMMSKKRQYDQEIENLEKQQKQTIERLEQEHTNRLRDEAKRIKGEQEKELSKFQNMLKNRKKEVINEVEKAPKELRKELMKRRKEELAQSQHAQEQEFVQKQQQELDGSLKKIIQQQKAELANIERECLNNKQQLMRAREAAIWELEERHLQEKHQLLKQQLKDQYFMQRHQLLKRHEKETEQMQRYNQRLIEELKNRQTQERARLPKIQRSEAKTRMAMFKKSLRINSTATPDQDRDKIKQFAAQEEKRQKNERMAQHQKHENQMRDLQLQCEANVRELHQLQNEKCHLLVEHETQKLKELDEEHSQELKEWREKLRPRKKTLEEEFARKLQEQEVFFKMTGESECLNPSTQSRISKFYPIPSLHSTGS
# Chain of Tyrosine-protein kinase receptor UFO (P30530 whole entry): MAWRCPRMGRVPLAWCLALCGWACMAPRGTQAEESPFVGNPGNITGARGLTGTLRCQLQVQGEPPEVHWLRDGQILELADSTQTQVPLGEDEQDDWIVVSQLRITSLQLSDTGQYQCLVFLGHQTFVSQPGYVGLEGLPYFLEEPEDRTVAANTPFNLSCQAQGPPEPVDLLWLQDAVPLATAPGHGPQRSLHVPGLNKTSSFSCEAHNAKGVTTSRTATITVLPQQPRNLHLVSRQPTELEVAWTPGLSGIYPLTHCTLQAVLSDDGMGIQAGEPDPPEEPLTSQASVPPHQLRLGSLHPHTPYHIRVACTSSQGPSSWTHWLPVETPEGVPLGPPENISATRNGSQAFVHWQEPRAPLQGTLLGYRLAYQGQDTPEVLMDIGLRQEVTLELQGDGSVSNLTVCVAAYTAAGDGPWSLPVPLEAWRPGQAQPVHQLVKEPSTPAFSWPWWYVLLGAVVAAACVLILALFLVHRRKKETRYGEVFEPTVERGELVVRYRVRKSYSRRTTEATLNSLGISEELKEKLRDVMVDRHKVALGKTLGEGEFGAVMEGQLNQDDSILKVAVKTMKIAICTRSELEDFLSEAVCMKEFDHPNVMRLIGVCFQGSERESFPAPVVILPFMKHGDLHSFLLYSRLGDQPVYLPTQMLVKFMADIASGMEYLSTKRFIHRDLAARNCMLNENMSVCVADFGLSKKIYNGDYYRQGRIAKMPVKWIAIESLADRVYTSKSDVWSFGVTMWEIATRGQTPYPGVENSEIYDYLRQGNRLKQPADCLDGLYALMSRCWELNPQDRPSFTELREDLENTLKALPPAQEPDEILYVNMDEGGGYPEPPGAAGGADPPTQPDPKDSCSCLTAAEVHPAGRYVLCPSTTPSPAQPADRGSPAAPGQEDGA
smiles,measurement,setting,value
Oc1cccc(-c2c[nH]c3ncccc23)c1,Ki,[1],> 3.16 µM (inactive)
same,Ki,[2],0.316 µM (active)
COc1ccc(CCNc2ccc(C(CC(N)=O)NC(=O)Cc3cccc4ccccc34)cc2[N+](=O)[O-])cc1 (centres undefined),IC50,[3],25.8 µM (active)
same,IC50,[4],> 100 µM (inactive)
same,IC50,Prothrombin,40.1 µM (active)
O=C1Nc2ccccc2Nc2cc(-c3ccncc3)ccc21,Ki,[5],1.26 µM (active)
same,Ki,[6],0.0398 µM (active)
same,Ki,[7],> 10 µM (inactive)
same,Ki,[2],0.00794 µM (active)
same,Ki,[8],0.398 µM (active)
same,Ki,[9],1.26 µM (active)
same,Ki,[10],> 3.16 µM (inactive)
same,Ki,[11],2.51 µM (active)
CC[N+](C)(CC)CCCCOc1ccc2c(c1)C(=O)c1cc(OCCCC[N+](C)(CC)CC)ccc1-2,IC50,[12],180 µM (active)
same,CC50,[13],38.8 µM (active)
same,IC50,[14],1.24 µM (active)
same,CC50,[15],17.1 µM (active)
same,CC50,[16],10.5 µM (active)
same,AC50,[17],0.574 µM (active)
CC(C)Oc1ccc(-c2noc(-c3ccc(CN4CC(C(=O)O)C4)cc3)n2)cc1Cl,Ki,[5],5.01 µM (active)
same,Ki,Misshapen-like kinase 1,6.31 µM (active)
Cc1n[nH]c2c1C(c1ccccc1Br)C(C#N)=C(N)O2 (centres undefined),Ki,[18],2 µM (active)
same,Ki,[19],5.01 µM (active)
same,Ki,[6],5.01 µM (active)
same,Ki,[20],2 µM (active)
same,Ki,[8],3.98 µM (active)
same,Ki,[21],1.58 µM (active)
same,Ki,[22],3.16 µM (active)
same,Ki,[23],3.16 µM (active)
